Measurements from patent US20220016272A1, “COMPOSITIONS, METHODS AND KITS FOR DIAGNOSING AND TREATING CD206 EXPRESSING CELL-RELATED DISORDERS” (Cardinal Health 414, LLC, priority 2013, published 2022).

Assays:
[1] = target: mannose receptor protein CD206 (Homo sapiens, UniProt P22897)
[2] = system: Kaposi's sarcoma lesion(s); test: SPECT and SPECT/CT imaging of primary cutaneous Kaposi's sarcoma; type: in vivo, human; conditions: 50 μg tilmanocept, 2.0 mCi 99mTc, subcutaneous; example in present tense
Protocol: The following illustrates yet another example of the evaluation of Primary Cutaneous Kaposi's Sarcoma (KS) by SPECT and SPECT/CT Imaging using Lymphoseek® (also known as technetium 99mTc-tilmanocept injection) a radiopharmaceutical that binds to mannose binding receptors (CD206) that reside on the surfaces of dendritic cells and macrophages.
The total volume of 99mTc-tilmanocept injection is 0.3 to 0.5 mL.
The patient has a marker lesion (>1 cm in diameter) with a confirmed diagnosis of KS (CD206-expressing cutaneous KS) via punch biopsy. The location of the marker KS lesion is on the extremities: from the shoulder to the metacarpal region or from the groin to the metatarsal region.
The dose is administered by a syringe with a ⅝ inch, 25- or 27-gauge, fixed needle, or other syringe/needle combinations that are acceptable for subcutaneous injections. The injection is made 1.5±0.25 cm distal from the marker lesion, 4-8 cm distal to the marker lesion, or 4-8 cm proximal to the marker lesion.
The patient undergoes a regional dynamic SPECT scan immediately post-injection for a duration of 30 minutes. After the initial scan, the patient undergoes whole body SPECT/CT imaging at 1 hour and whole body SPECT imaging at 4-6 hours post injection. The patient is permitted to leave the imaging center after the 4-6 hour SPECT scan. […]

[3] = staging breast cancer, melanoma or SCC; cited from earlier work

mannose receptor protein CD206, sequence (P22897 19-1456): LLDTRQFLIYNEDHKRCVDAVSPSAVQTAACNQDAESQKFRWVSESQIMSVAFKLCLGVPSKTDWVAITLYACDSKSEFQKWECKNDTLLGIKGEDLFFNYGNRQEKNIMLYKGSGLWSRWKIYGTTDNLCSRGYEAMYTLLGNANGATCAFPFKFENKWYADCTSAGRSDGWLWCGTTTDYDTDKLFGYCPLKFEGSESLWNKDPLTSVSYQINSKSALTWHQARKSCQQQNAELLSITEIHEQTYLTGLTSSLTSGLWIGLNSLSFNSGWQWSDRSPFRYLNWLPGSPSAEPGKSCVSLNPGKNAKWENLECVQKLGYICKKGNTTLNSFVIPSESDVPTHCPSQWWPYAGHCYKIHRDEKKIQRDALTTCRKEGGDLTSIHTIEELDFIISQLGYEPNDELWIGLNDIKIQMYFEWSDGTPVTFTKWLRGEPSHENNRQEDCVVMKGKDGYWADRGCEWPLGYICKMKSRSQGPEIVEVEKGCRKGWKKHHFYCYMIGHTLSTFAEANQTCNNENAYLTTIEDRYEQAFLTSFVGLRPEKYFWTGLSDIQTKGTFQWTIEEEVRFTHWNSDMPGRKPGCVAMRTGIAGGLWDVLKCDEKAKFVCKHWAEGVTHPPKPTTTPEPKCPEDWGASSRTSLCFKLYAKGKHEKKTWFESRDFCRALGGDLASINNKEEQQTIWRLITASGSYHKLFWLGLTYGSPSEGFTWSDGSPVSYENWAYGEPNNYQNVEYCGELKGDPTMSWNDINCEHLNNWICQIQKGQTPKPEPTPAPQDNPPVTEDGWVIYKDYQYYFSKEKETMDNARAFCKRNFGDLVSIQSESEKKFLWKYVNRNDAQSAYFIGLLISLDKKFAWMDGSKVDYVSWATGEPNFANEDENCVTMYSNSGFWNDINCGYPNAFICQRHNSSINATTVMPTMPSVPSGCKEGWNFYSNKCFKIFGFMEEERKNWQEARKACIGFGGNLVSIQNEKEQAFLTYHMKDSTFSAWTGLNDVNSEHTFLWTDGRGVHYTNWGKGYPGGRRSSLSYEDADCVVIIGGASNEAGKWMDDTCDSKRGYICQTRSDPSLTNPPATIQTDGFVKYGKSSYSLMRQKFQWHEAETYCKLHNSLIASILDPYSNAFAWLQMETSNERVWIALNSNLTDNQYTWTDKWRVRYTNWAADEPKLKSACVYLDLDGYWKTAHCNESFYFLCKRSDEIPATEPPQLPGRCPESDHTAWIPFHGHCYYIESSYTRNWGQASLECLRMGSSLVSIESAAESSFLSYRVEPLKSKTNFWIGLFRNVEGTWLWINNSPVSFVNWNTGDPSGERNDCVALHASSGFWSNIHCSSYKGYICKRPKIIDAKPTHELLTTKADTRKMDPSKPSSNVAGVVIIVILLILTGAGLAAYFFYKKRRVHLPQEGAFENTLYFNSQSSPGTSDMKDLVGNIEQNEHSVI

Row | Substance | intracellular fate after uptake into macrophage [1] | receptor specificity ([1]; administered to mammals or contacted with CD206 expressing cells ex vivo) | detection of KS lesions by SPECT and SPECT/CT [2] | injection site clearance [3] | uptake by distal or second-echelon lymph nodes [3] | uptake by the sentinel lymph node(s) [3]
1 | dextran 3-[(2-aminoethyl)thio]propyl 17-carboxy-10,13,16-tris (carboxymethyl)-8-oxo-4-thia-7,10,13,16-tetraazaheptadec-1-yl 3-[[2-[[1-imino-2-(D-mannopyranosylthio) ethyl]aminolethyllthiolpropyl ether complexes [tilmanocept] | persists in stable non-digesting vesicles | bind exclusively to the mannose receptor protein CD206 |  |  |  | 
2 | technetium Tc 99m, dextran 3-[(2-aminoethyl)thio]propyl 17-carboxy-10,13,16-tris(carboxymethyl)-8-oxo-4-thia-7,10,13,16-tetraaz aheptadec-1-yl 3-[[2-[[1-imino-2-(D-mannopyranosylthio) ethyl]amino]ethyl]thio]propyl ether complexes [Lymphoseek] |  |  | aids in the detection of Kaposi's sarcoma lesion(s) | rapid clearance from an injection site | low uptake by distal or second-echelon lymph nodes | rapid and sustained uptake by the sentinel lymph node(s)
